Starred links: 1 amine or outer side, 2 acyl side, 3 side chain; linkers in the order of their positions; H or OH if unused. Non-standard residues stand in square brackets, D forms with d. Residues, ends and D or L forms follow the SMILES beside them. Ala(4-thiazolyl) = N[C@@H](Cc1cscn1)C(=O)O; Phe(4-Cl) = N[C@@H](Cc1ccc(Cl)cc1)C(=O)O; X1 = CCC(CC)C[C@@H](C(=O)[*:2])N(C)[*:1]; Phe(4-F) = N[C@@H](Cc1ccc(F)cc1)C(=O)O; NMeF = CN[C@@H](Cc1ccccc1)C(=O)O; NMeL = CN[C@@H](CC(C)C)C(=O)O; Ahp(2) = CCCCC[C@H](N)C(=O)O; Tle = CC(C)(C)[C@H](N)C(=O)O; hSer = N[C@@H](CCO)C(=O)O; NMeA = CN[C@@H](C)C(=O)O; dNMeA = CN[C@H](C)C(=O)O
Experiments:
Protein Mdm4 = target: T1, Protein Mdm4 (Homo sapiens, UniProt O15151); experiment: Inhibition of N-terminal biotin-his-tagged MDMX (24 to 108 residues)(unknown origin) binding to p53 incubated for 1 hr by Alphascreen assay
T1 sequence (O15151 whole entry): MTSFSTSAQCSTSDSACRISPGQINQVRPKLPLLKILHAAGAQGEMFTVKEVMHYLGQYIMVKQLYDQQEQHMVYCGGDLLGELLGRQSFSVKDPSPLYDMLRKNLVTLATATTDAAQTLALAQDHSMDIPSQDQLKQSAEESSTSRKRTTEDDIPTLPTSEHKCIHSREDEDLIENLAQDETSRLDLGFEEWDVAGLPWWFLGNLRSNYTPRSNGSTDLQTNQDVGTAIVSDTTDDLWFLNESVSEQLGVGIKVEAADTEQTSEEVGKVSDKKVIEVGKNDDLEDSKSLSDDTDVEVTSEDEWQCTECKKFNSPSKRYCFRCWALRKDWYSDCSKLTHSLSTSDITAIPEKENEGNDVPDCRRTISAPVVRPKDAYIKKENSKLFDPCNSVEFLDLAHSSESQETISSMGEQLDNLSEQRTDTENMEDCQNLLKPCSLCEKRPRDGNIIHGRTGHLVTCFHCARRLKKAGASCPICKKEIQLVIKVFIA

[1] = Apparent permeability across apical to basolateral side in MDCK-II cells at 10 uM incubated for 2 hrs by LC/MS/MS analysis; format: ADME, cell-based, Canis lupus familiaris; details: dog

## CCCCC[C@@H]1NC(=O)[C@H](CC(C)C)N(C)C(=O)[C@H](Cc2ccc(F)cc2)NC(=O)[C@H](C)N(C)C(=O)[C@@H](C)N(C)C(=O)[C@H](Cc2cscn2)NC(=O)[C@H](C)N(C)C(=O)[C@H](CCOC)NC(=O)[C@H]2CCCN2C(=O)[C@H](CC(CC)CC)N(C)C1=O (cyclo([Ahp(2)][X1][dP][hSer](Me)[NMeA][Ala(4-thiazolyl)][dNMeA][NMeA][Phe(4-F)][NMeL]))
Protein Mdm4
  IC50: 70 nM
[1]
  Papp A→B at 2 h, 10 µM: 0.8 ×10⁻⁶ cm/s

## COCC[C@@H]1NC(=O)[C@H]2CCCN2C(=O)[C@H](Cc2ccccc2)N(C)C(=O)[C@H](Cc2ccc(Cl)cc2)NC(=O)[C@H](C(C)(C)C)NC(=O)[C@H](Cc2ccc(F)cc2)NC(=O)[C@H](C)N(C)C(=O)[C@@H](C)N(C)C(=O)[C@H](Cc2cscn2)NC(=O)[C@H](C)N(C)C1=O (cyclo([Ala(4-thiazolyl)][dNMeA][NMeA][Phe(4-F)][Tle][Phe(4-Cl)][NMeF][dP][hSer](Me)[NMeA]))
Protein Mdm4
  IC50: 30 nM
[1]
  Papp A→B at 2 h, 10 µM: 0.07 ×10⁻⁶ cm/s
